Results: patent US11980188B2, “Spiro cyclohexanedione derivates as herbicides” (SYNGENTA PARTICIPATIONS AG, priority 2018, dated 2024)

Experiments:
[1] = tested on: Alopecurus myosuroides (ALOMY); experiment: Glasshouse herbicide test, pre- and post-emergence, percentage damage; assay type: in vivo; details: 250 g/h, evaluated after 13 days, percentage damage on five point scale; for ALOMY POST: post-emergence; for ALOMY PRE: pre-emergence
Outline: (§1)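 Spray: 250 g/h, aqueous acetone/water 50:50 + 0.5% Tween 20; pre-em 1 d after sowing, post-em at 8 d. Glasshouse 24/16 °C, 14 h light, 65% RH, watered twice daily. Read % damage at 13 d, scored 1–5 (5=80-100%).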

[2] = tested on: Setaria faberi (SETFA); experiment: as above; assay type: in vivo; details: 250 g/h, evaluated after 13 days, percentage damage on five point scale; for SETFA POST: post-emergence; for SETFA PRE: pre-emergence
Outline: as §1

[3] = tested on: Avena fatua (AVEFA); experiment: as above; assay type: in vivo; details: 250 g/h, evaluated after 13 days, percentage damage on five point scale; for AVEFA POST: post-emergence; for AVEFA PRE: pre-emergence
Outline: as §1

[4] = tested on: Echinochloa crus-galli (ECHCG); experiment: as above; assay type: in vivo; details: 250 g/h, evaluated after 13 days, percentage damage on five point scale; for ECHCG POST: post-emergence; for ECHCG PRE: pre-emergence
Outline: as §1

[5] = tested on: Lolium perenne (LOLPE); experiment: as above; assay type: in vivo; details: 250 g/h, evaluated after 13 days, percentage damage on five point scale; for LOLPE POST: post-emergence; for LOLPE PRE: pre-emergence
Outline: as §1

[6] = tested on: ALOMY; experiment: Post-emergence comparison with comparator C1 at indicated application rates; assay type: in vivo, Alopecurus myosuroides
Method: (§2) Seeds of a variety of test species are sown in standard soil in pots (Lolium perenne (LOLPE), Setaria faberi (SETFA), Alopecurus myosuroides (ALOMY), Echinochloa crus-galli (ECHCG), Avena fatua (AVEFA)). After cultivation for one day (pre-emergence) or after 8 days cultivation (post-emergence) under controlled conditions in a glasshouse (at 24/16° C., day/night; 14 hours light; 65% humidity), the plants are sprayed with an aqueous spray solution derived from the formulation of the technical active ingredient in acetone/water (50:50) solution containing 0.5% Tween 20 (polyoxyethelyene sorbitan monolaurate, CAS RN 9005-64-5). Compounds are applied at […]. The test plants are then grown in a glasshouse under controlled conditions in a glasshouse (at 24/16° C., day/night; 14 hours light; 65% humidity) and watered twice daily. After 13 days for pre and post-emergence, the test is evaluated for the percentage damage caused to the plant. The biological activities are shown in the following table on a five point scale (5=80-100%; 4=60-79%; 3=40-59%; 2=20-39%; 1=0-19%).
(§3) Using procedures outlines above, weed species ALOMY, AVEFA & LOLPE are treated post-emergence with compound A4 of the present invention or comparator compound C1 (Compound T-26 from WO2008/110308) at the application rates indicated. The test is evaluated for the percentage damage caused to the plant.

[7] = tested on: weed species ALOMY, AVEFA & LOLPE; experiment: Post-emergence comparison with comparator C1, overall conclusion; assay type: in vivo; details: 63 and 16 g/ha, Table B2
Method: as §2, §3

[8] = tested on: AVEFA; experiment: Post-emergence comparison with comparator C1 at indicated application rates; assay type: in vivo, Avena fatua
Method: as §2, §3

[9] = tested on: LOLPE; experiment: as above; assay type: in vivo, Lolium perenne
Method: as §2, §3

| SMILES | ALOMY POST [1] | ALOMY PRE [1] | SETFA POST [2] | SETFA PRE [2] | AVEFA POST [3] | AVEFA PRE [3] | ECHCG POST [4] | ECHCG PRE [4] | LOLPE POST [5] | LOLPE PRE [5] | ALOMY percentage damage ([6]; rate 16 g/ha) [%] | ALOMY percentage damage ([6]; rate 63 g/ha) [%] | weed control vis-à-vis prior art compound C1 [7] | AVEFA percentage damage ([8]; rate 16 g/ha) [%] | AVEFA percentage damage ([8]; rate 63 g/ha) [%] | LOLPE percentage damage ([9]; rate 16 g/ha) [%] | LOLPE percentage damage ([9]; rate 63 g/ha) [%] |
| --- | --- | --- | --- | --- | --- | --- | --- | --- | --- | --- | --- | --- | --- | --- | --- | --- | --- |
| COc1cc(-c2ccc(F)cc2)cc(OC)c1C1C(=O)CC2(CCN(OC)CC2)CC1=O [Compound A7] | 5 (5=80-100%) | 5 (5=80-100%) | 5 (5=80-100%) | 5 (5=80-100%) | 5 (5=80-100%) | 5 (5=80-100%) | 5 (5=80-100%) | 5 (5=80-100%) | 5 (5=80-100%) | 5 (5=80-100%) | 80 | 100 | improved weed control | 100 | 100 | 90 | 100 |
| CON1CCC2(CC1)CC(=O)C(c1c(C)cc(C)cc1C)C(=O)C2 [Compound A4] | 5 (5=80-100%) | 5 (5=80-100%) | 5 (5=80-100%) | 5 (5=80-100%) | 5 (5=80-100%) | 5 (5=80-100%) | 5 (5=80-100%) | 5 (5=80-100%) | 5 (5=80-100%) | 5 (5=80-100%) | 40 | 90 | improved weed control | 40 | 90 | 70 | 90 |
| CC(=O)N1CCC2(CC1)CC(=O)C(c1c(C)cc(-c3ncc(F)cn3)cc1C)C(=O)C2 [Compound A13, 3-acetyl-9-[4-(5-fluoropyrimidin-2-yl)-2,6-dimethyl-phenyl]-3-azaspiro[5.5]undecane-8,10-dione] | 5 (5=80-100%) | 5 (5=80-100%) | 5 (5=80-100%) | 5 (5=80-100%) | 5 (5=80-100%) | 5 (5=80-100%) |  | 5 (5=80-100%) | 5 (5=80-100%) | 5 (5=80-100%) | 90 | 100 | improved weed control | 90 | 100 | 70 | 90 |
| Cc1cc(C)c(C2C(=O)CC3(CCOCC3)CC2=O)c(C)c1 [Compound C1, reference compound] |  |  |  |  |  |  |  |  |  |  | 20 | 80 |  | 20 | 70 | 30 | 60 |
| CC(=O)N1CCC2(CC1)CC(=O)C(c1c(C)cc(-c3ncc(Cl)cc3F)cc1C)C(=O)C2 [Compound A50] | 5 (5=80-100%) | 5 (5=80-100%) | 5 (5=80-100%) | 5 (5=80-100%) | 5 (5=80-100%) | 5 (5=80-100%) | 5 (5=80-100%) | 5 (5=80-100%) | 5 (5=80-100%) | 5 (5=80-100%) |  |  |  |  |  |  |  |
